Structures can show the parent of a compound that is named as a salt.
Assays:
RXF 393 = assay: NCI 60 panel, Renal Cancer RXF 393; type: cell-based; conditions: Homo sapiens, read-out: Tumor cell inhibitory activity (NCI) GI50
OVCAR-3 = assay: NCI 60 panel, Ovarian cancer OVCAR-3; type: cell-based; conditions: Homo sapiens, read-out: Tumor cell inhibitory activity (NCI) GI50
A549/ATCC = assay: NCI 60 panel, NSCLC A549/ATCC; type: cell-based; conditions: Homo sapiens, read-out: Tumor cell inhibitory activity (NCI) GI50
NCI-H460 = assay: NCI 60 panel, NSCLC NCI-H460; type: cell-based; conditions: Homo sapiens, read-out: Tumor cell inhibitory activity (NCI) GI50
NCI-H23 = assay: NCI 60 panel, NSCLC NCI-H23; type: cell-based; conditions: Homo sapiens, read-out: Tumor cell inhibitory activity (NCI) GI50
UACC-257 = assay: NCI 60 panel, Melanoma UACC-257; type: cell-based; conditions: Homo sapiens, read-out: Tumor cell inhibitory activity (NCI) GI50
SW-620 = assay: NCI 60 panel, Colon Cancer SW-620; type: cell-based; conditions: Homo sapiens, read-out: Tumor cell inhibitory activity (NCI) GI50
HCT-15 = assay: NCI 60 panel, Colon Cancer HCT-15; type: cell-based; conditions: Homo sapiens, read-out: Tumor cell inhibitory activity (NCI) GI50
DU-145 = assay: NCI 60 panel, Prostate Cancer DU-145; type: cell-based; conditions: Homo sapiens, read-out: Tumor cell inhibitory activity (NCI) GI50
SK-MEL-5 = assay: NCI 60 panel, Melanoma SK-MEL-5; type: cell-based; conditions: Homo sapiens, read-out: Tumor cell inhibitory activity (NCI) GI50
T-47D = assay: NCI 60 panel, Breast Cancer T-47D; type: cell-based; conditions: Homo sapiens, T47D, read-out: Tumor cell inhibitory activity (NCI) GI50
NCI-H322M = assay: NCI 60 panel, NSCLC NCI-H322M; type: cell-based; conditions: Homo sapiens, read-out: Tumor cell inhibitory activity (NCI) GI50
CCRF-CEM = assay: NCI 60 panel, Leukemia CCRF-CEM; type: cell-based; conditions: Homo sapiens, read-out: Tumor cell inhibitory activity (NCI) GI50
SF-268 = assay: NCI 60 panel, CNS Cancer SF-268; type: cell-based; conditions: Homo sapiens, read-out: Tumor cell inhibitory activity (NCI) GI50
MDA-MB-468 = assay: NCI 60 panel, Breast Cancer MDA-MB-468; type: cell-based; conditions: Homo sapiens, read-out: Tumor cell inhibitory activity (NCI) GI50
NCI-H522 = assay: NCI 60 panel, NSCLC NCI-H522; type: cell-based; conditions: Homo sapiens, read-out: Tumor cell inhibitory activity (NCI) GI50
OVCAR-5 = assay: NCI 60 panel, Ovarian cancer OVCAR-5; type: cell-based; conditions: Homo sapiens, read-out: Tumor cell inhibitory activity (NCI) GI50
TK10 = assay: NCI 60 panel, Renal Cancer TK10; type: cell-based; conditions: Homo sapiens, TK-10, read-out: Tumor cell inhibitory activity (NCI) GI50
U251 = assay: NCI 60 panel, CNS Cancer U251; type: cell-based; conditions: Homo sapiens, U-251, read-out: Tumor cell inhibitory activity (NCI) GI50
SK-OV-3 = assay: NCI 60 panel, Ovarian cancer SK-OV-3; type: cell-based; conditions: Homo sapiens, read-out: Tumor cell inhibitory activity (NCI) GI50
MALME-3M = assay: NCI 60 panel, Melanoma MALME-3M; type: cell-based; conditions: Homo sapiens, read-out: Tumor cell inhibitory activity (NCI) GI50
K-562 = assay: NCI 60 panel, Leukemia K-562; type: cell-based; conditions: Homo sapiens, K562, read-out: Tumor cell inhibitory activity (NCI) GI50
SF-295 = assay: NCI 60 panel, CNS Cancer SF-295; type: cell-based; conditions: Homo sapiens, read-out: Tumor cell inhibitory activity (NCI) GI50
HS 578T = assay: NCI 60 panel, Breast Cancer HS 578T; type: cell-based; conditions: Homo sapiens, read-out: Tumor cell inhibitory activity (NCI) GI50
OVCAR-4 = assay: NCI 60 panel, Ovarian cancer OVCAR-4; type: cell-based; conditions: Homo sapiens, read-out: Tumor cell inhibitory activity (NCI) GI50
SNB-19 = assay: NCI 60 panel, CNS Cancer SNB-19; type: cell-based; conditions: Homo sapiens, read-out: Tumor cell inhibitory activity (NCI) GI50
HCT-116 = assay: NCI 60 panel, Colon Cancer HCT-116; type: cell-based; conditions: Homo sapiens, read-out: Tumor cell inhibitory activity (NCI) GI50
EGFR = EGFR (Homo sapiens, UniProt P00533); assay: EGFR kinase inhibition, whole-cell assay; type: cell-based; conditions: read-out: kinase inhibition IC50 [whole-cell assays] EGFR
Chain of EGFR (P00533 25-1210, species assumed): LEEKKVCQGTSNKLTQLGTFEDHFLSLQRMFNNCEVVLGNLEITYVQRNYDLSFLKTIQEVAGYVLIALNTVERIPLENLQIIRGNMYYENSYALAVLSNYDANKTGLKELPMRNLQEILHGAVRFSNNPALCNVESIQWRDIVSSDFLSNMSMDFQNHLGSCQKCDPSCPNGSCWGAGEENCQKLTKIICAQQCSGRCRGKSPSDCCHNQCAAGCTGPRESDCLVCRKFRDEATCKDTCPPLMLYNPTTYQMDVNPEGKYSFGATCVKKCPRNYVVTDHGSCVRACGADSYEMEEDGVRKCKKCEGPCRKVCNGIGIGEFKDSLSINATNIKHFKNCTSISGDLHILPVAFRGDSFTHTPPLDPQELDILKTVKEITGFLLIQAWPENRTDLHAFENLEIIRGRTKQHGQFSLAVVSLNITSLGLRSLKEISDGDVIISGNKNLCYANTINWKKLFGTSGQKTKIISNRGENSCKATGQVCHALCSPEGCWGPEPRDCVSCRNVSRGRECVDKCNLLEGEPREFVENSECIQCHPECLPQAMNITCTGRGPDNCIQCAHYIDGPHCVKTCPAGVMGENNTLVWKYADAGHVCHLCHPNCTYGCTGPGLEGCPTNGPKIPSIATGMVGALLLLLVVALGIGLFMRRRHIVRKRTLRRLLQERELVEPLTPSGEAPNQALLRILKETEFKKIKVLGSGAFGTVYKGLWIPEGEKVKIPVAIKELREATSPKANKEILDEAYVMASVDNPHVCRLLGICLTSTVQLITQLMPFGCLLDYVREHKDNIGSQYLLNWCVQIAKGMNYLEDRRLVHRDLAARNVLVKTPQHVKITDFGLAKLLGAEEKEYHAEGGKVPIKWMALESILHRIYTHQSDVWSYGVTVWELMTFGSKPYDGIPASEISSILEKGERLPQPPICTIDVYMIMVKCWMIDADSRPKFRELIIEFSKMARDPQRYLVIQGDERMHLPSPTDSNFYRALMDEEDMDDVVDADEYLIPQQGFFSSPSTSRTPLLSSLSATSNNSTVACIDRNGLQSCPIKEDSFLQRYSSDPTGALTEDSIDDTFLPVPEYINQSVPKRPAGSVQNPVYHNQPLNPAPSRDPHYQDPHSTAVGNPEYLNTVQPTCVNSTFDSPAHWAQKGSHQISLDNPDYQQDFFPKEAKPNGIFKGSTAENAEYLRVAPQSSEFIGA

OVCAR-8 = assay: NCI 60 panel, Ovarian cancer OVCAR-8; type: cell-based; conditions: Homo sapiens, read-out: Tumor cell inhibitory activity (NCI) GI50
IGROVI = assay: NCI 60 panel, Ovarian cancer IGROVI; type: cell-based; conditions: read-out: Tumor cell inhibitory activity (NCI) GI50
MDA-MB-435 = assay: NCI 60 panel, Melanoma MDA-MB-435; type: cell-based; conditions: Homo sapiens, read-out: Tumor cell inhibitory activity (NCI) GI50
MCF7 = assay: NCI 60 panel, Breast Cancer MCF7; type: cell-based; conditions: Homo sapiens, read-out: Tumor cell inhibitory activity (NCI) GI50
MOLT-4 = assay: NCI 60 panel, Leukemia MOLT-4; type: cell-based; conditions: Homo sapiens, read-out: Tumor cell inhibitory activity (NCI) GI50
SN12C = assay: NCI 60 panel, Renal Cancer SN12C; type: cell-based; conditions: Homo sapiens, read-out: Tumor cell inhibitory activity (NCI) GI50
wild type HeLa cells = assay: HeLa cytotoxicity, wild type; type: cell-based; conditions: Homo sapiens
HCC-2998 = assay: NCI 60 panel, Colon Cancer HCC-2998; type: cell-based; conditions: Homo sapiens, read-out: Tumor cell inhibitory activity (NCI) GI50
UO-31 = assay: NCI 60 panel, Renal Cancer UO-31; type: cell-based; conditions: Homo sapiens, read-out: Tumor cell inhibitory activity (NCI) GI50
HOP-92 = assay: NCI 60 panel, NSCLC HOP-92; type: cell-based; conditions: Homo sapiens, read-out: Tumor cell inhibitory activity (NCI) GI50
A498 = assay: NCI 60 panel, Renal Cancer A498; type: cell-based; conditions: Homo sapiens, read-out: Tumor cell inhibitory activity (NCI) GI50
NCI-H226 = assay: NCI 60 panel, NSCLC NCI-H226; type: cell-based; conditions: Homo sapiens, read-out: Tumor cell inhibitory activity (NCI) GI50
HOP-62 = assay: NCI 60 panel, NSCLC HOP-62; type: cell-based; conditions: Homo sapiens, read-out: Tumor cell inhibitory activity (NCI) GI50
HL-60(TB) = assay: NCI 60 panel, Leukemia HL-60(TB); type: cell-based; conditions: Homo sapiens, read-out: Tumor cell inhibitory activity (NCI) GI50
KM12 = assay: NCI 60 panel, Colon Cancer KM12; type: cell-based; conditions: Homo sapiens, read-out: Tumor cell inhibitory activity (NCI) GI50
SNB-75 = assay: NCI 60 panel, CNS Cancer SNB-75; type: cell-based; conditions: Homo sapiens, read-out: Tumor cell inhibitory activity (NCI) GI50
RPMI-8226 = assay: NCI 60 panel, Leukemia RPMI-8226; type: cell-based; conditions: Homo sapiens, read-out: Tumor cell inhibitory activity (NCI) GI50
786-0 = assay: NCI 60 panel, Renal Cancer 786-0; type: cell-based; conditions: Homo sapiens, read-out: Tumor cell inhibitory activity (NCI) GI50
CAKI-1 = assay: NCI 60 panel, Renal Cancer CAKI-1; type: cell-based; conditions: Homo sapiens, read-out: Tumor cell inhibitory activity (NCI) GI50
MDA-MB-231/ATCC = assay: NCI 60 panel, Breast Cancer MDA-MB-231/ATCC; type: cell-based; conditions: Homo sapiens, read-out: Tumor cell inhibitory activity (NCI) GI50
PDGFRβ = PDGFRβ (Homo sapiens, UniProt P09619); assay: PDGFRβ kinase inhibition, whole-cell assay; type: cell-based; conditions: whole-cell assay; read-out: kinase inhibition IC50 [whole-cell assays] PDGFRβ
Chain of PDGFRβ (P09619 33-1106, species assumed): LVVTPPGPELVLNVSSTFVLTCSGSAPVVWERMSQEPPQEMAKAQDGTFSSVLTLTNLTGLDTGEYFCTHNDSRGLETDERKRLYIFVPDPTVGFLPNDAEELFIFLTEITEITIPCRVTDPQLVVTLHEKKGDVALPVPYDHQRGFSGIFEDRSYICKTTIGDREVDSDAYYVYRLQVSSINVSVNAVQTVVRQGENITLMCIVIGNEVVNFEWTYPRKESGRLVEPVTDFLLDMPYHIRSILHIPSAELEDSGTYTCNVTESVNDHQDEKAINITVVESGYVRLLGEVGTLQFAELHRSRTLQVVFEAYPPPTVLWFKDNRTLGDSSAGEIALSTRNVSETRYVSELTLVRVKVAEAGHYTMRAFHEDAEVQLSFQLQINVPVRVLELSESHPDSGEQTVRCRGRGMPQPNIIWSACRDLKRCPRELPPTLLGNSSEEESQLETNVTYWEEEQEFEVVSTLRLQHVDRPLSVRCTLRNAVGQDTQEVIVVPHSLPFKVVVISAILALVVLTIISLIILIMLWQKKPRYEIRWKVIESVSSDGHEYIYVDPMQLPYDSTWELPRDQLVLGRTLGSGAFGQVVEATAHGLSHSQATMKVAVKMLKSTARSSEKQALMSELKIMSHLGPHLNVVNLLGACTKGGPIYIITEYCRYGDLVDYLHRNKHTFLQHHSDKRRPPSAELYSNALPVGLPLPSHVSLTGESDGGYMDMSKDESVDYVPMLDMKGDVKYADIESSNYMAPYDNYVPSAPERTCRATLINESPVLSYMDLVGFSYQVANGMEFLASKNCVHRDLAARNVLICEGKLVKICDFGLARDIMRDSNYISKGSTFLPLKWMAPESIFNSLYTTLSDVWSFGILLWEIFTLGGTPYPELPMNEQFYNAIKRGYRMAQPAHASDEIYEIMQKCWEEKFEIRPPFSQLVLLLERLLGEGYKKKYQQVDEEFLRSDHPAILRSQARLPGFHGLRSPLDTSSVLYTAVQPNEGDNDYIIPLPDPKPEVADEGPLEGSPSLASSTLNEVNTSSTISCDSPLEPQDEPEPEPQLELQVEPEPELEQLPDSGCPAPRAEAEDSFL

M14 = assay: NCI 60 panel, Melanoma M14; type: cell-based; conditions: Homo sapiens, read-out: Tumor cell inhibitory activity (NCI) GI50
NCI/ADR-RES = assay: NCI 60 panel, Ovarian cancer NCI/ADR-RES; type: cell-based; conditions: Homo sapiens, read-out: Tumor cell inhibitory activity (NCI) GI50
LOX IMVI = assay: NCI 60 panel, Melanoma LOX IMVI; type: cell-based; conditions: Homo sapiens, read-out: Tumor cell inhibitory activity (NCI) GI50
UACC-62 = assay: NCI 60 panel, Melanoma UACC-62; type: cell-based; conditions: Homo sapiens, read-out: Tumor cell inhibitory activity (NCI) GI50
[1] = tested on: NCI 60 tumor cell line panel; assay: NCI 60 tumor cell line panel, overall; type: cell-based
EKVX = assay: NCI 60 panel, NSCLC EKVX; type: cell-based; conditions: Homo sapiens, read-out: Tumor cell inhibitory activity (NCI) GI50
COLO 205 = assay: NCI 60 panel, Colon Cancer COLO 205; type: cell-based; conditions: Homo sapiens, read-out: Tumor cell inhibitory activity (NCI) GI50
SK-MEL-28 = assay: NCI 60 panel, Melanoma SK-MEL-28; type: cell-based; conditions: Homo sapiens, read-out: Tumor cell inhibitory activity (NCI) GI50
SR = assay: NCI 60 panel, Leukemia SR; type: cell-based; conditions: Homo sapiens, read-out: Tumor cell inhibitory activity (NCI) GI50
ACHN = assay: NCI 60 panel, Renal Cancer ACHN; type: cell-based; conditions: Homo sapiens, read-out: Tumor cell inhibitory activity (NCI) GI50
BT-549 = assay: NCI 60 panel, Breast Cancer BT-549; type: cell-based; conditions: Homo sapiens, read-out: Tumor cell inhibitory activity (NCI) GI50
SF-539 = assay: NCI 60 panel, CNS Cancer SF-539; type: cell-based; conditions: Homo sapiens, read-out: Tumor cell inhibitory activity (NCI) GI50

In the case of `COc1ccc2c(c1)CCCN2c1nc(C)nc2c(Cc3ccccc3)c[nH]c12` [Compound 2, 1-(7-Benzyl-2-methyl-5H-pyrrolo[3,2-d]pyrimidin-4-yl)-6-methoxy-1,2,3,4-tetrahydroquinoline], the GI50 (RXF 393) is reported as 212 nM, the GI50 (OVCAR-3) is reported as 285 nM and the GI50 (A549/ATCC) is reported as 406 nM. It also gave a GI50 (NCI-H460) of 337 nM, a GI50 (NCI-H23) of 320 nM and a GI50 (UACC-257) of 108 nM. For the same compound, the GI50 (SW-620) was 370 nM, the GI50 (HCT-15) was 366 nM and the GI50 (DU-145) was 383 nM. It also gave a GI50 (SK-MEL-5) of 325 nM, a GI50 (T-47D) of 128 nM and a GI50 (NCI-H322M) of 362 nM. The GI50 (CCRF-CEM) was 226 nM, the GI50 (SF-268) was 723 nM and the GI50 (MDA-MB-468) was 153 nM. It also gave a GI50 (NCI-H522) of 316 nM, a GI50 (OVCAR-5) of 543 nM and a GI50 (TK10) of 123 nM. It also gave a GI50 (U251) of 316 nM, a GI50 (SK-OV-3) of 423 nM and a GI50 (MALME-3M) of 330 nM. It also gave a GI50 (K-562) of 111 nM, a GI50 (SF-295) of 192 nM and a GI50 (HS 578T) of 582 nM. It also gave a GI50 (OVCAR-4) of 468 nM, a GI50 (SNB-19) of 549 nM and a GI50 (HCT-116) of 368 nM. For the same compound, the IC50 (EGFR) was 33.6 nM, the GI50 (OVCAR-8) was 487 nM and the GI50 (IGROVI) was 440 nM. The GI50 (MDA-MB-435) was 341 nM, the GI50 (MCF7) was 248 nM and the GI50 (MOLT-4) was 345 nM. It also gave a GI50 (SN12C) of 618 nM, an IC50 (wild type HeLa cells) of 250 nM and a GI50 (HCC-2998) of 318 nM. The GI50 (UO-31) was 390 nM, the GI50 (HOP-92) was 189 nM and the GI50 (A498) was 197 nM. It also gave a GI50 (NCI-H226) of 136 nM, a GI50 (HOP-62) of 379 nM and a GI50 (HL-60(TB)) of 222 nM. The GI50 (KM12) was 366 nM, the GI50 (SNB-75) was 182 nM and the GI50 (RPMI-8226) was 266 nM. For the same compound, the GI50 (786-0) was 934 nM, the GI50 (CAKI-1) was 341 nM and the GI50 (MDA-MB-231/ATCC) was 641 nM. It also gave an IC50 (PDGFRβ) of 90.3 nM, a GI50 (M14) of 252 nM and a GI50 (NCI/ADR-RES) of 265 nM. The GI50 (LOX IMVI) was 521 nM, the GI50 (UACC-62) was 659 nM and the “GI50 across the NCI 60 tumor cell line panel, in words” value [1] was 2- to 3-digit nanomolar. For the same compound, the GI50 (EKVX) was 463 nM, the GI50 (COLO 205) was 232 nM and the GI50 (SK-MEL-28) was 368 nM. It also gave a GI50 (SR) of 922 nM, a GI50 (ACHN) of 830 nM and a GI50 (BT-549) of 755 nM. For the same compound, the GI50 (SF-539) was 260 nM.

Work on `COc1ccc(Nc2nc(C)nc3c(Cc4ccccc4)cn(C)c23)cc1` (as salt: salt) [Compound 3, 7-Benzyl-N-(4-methoxyphenyl)-2,5-dimethyl-5H-pyrrolo[3,2-d]pyrimidin-4-amine] yielded a melting point of 291 to 292 °C.
